Counter-ions that a name gives are not always drawn.
system: Artemia; assay: (§1) Toxicity against brine shrimp assessed as impaired swimming movements after 24 hrs; format: organism-based; settings: Artemia, 24 h

| Compound | IC50 |
| --- | --- |
| C[N+](C)(C)CC(O)c1ccccc1.[Cl-] (centres undefined) | > 1000 µg/mL |
| C[N+](C)(C)CCO.[Cl-] [CHOLINE CHLORIDE] | > 1000 µg/mL |

same assay, conditions: artemia, in vivo, 24 h

| Compound | LC50 |
| --- | --- |
| CO[C@H](C[N+](C)(C)C)c1ccccc1.[Cl-] [CORYPHANTHINE CHLORIDE] | 494 µg/mL |

system: not listed separately; assay: as §1; format: organism-based, Artemia; settings: artemia, in vivo

| Compound | LC50 at 24 h |
| --- | --- |
| CO[C@H](C[N+](C)(C)C)c1ccccc1 | 354 µg/mL |
| COc1ccc(CC[N+](C)(C)C)cc1 | 425 µg/mL |
| COC(C[N+](C)(C)C)c1ccccc1 (racemic) | 368 µg/mL |
| C[N+](C)(C)CCc1ccc(O)cc1 [CANDICINE CHLORIDE] | 923 µg/mL |
| CN1CCC[C@H]1c1cccnc1 [NICOTINE HYDROCHLORIDE] | 158 µg/mL |
| O=C1C[C@@H]2OCC=C3CN4CC[C@]56c7ccccc7N1[C@H]5[C@H]2[C@H]3C[C@H]46 [STRYCHNINE SULFATE] | 164 µg/mL |

From ChEMBL document CHEMBL1145671, “Cactus Alkaloids. LIII. Coryphanthine and O-Methyl-Candicine, Two New Quaternary Alkaloids from Coryphantha greenwoodii” (J Nat Prod, 1983)
